{"source": "patent US20240279201A1", "about": "“DUAL WNT SIGNALING PATHWAY INHIBITORS AND AMPK ACTIVATORS FOR TREATMENTS OF DISEASE” (priority 2021, published 2024)", "key": {"[1]": {"test_system": "DMNA-induced liver fibrosis", "assay": "Dimethylnitrosamine (DMNA) liver fibrosis mouse model", "assay_type": "in vivo, C57BL/6 mice", "experimental": "FIG. 4 illustrates that YA6060 protects liver from damage caused by dimethylnitrosamine (DMNA). Vehicle (top panels) or 10 mg/kg DMNA (bottom panels) was given on a Monday-Tuesday-Wednesday schedule each week; YA6060 or vehicle was given daily. After sacrifice of mice (6/group) at 4 weeks, paraffin sections were stained with Sirius Red to visualize collagen. […] Bars, 100 μm.\nFIG. 10 is a graph of experimental data illustrating anti-fibrotic efficacy of YA6060 in mice. C57BL/6 mice received dimethylnitrosamine (DMNA, 10 mg/kg/d i.p. for 3d and then rest for 4d) or saline, with or without YA6060 (0.5 mg/kg/d) for 4 weeks. The fibrosis and inflammation biomarkers were examined by RT-PCR with the liver tissues.\nFIG. 11A-FIG. 11C illustrate the effect of YA6060 on liver function in mice. C57BL/6 mice received dimethylnitrosamine (DMNA, 10 mg/kg/d i.p. for 3d and then rest for 4d) or saline, with or without YA6060 (0.5 mg/kg/d) for 4 weeks. The serum biochemistry was determined for alanine aminotransferase (ALT) and aspartate aminotransferase (AST) (FIG. 11A), albumin (FIG. 11B), and total bilirubin (FIG. 11C).\nThe effect of YA6060 treatment on the expression of fibrotic markers in LX-2 cells was examined. LX-2 cells were treated with TGF-beta to model fibrosis. Protein expression of collagen 1, vimentin, and alpha-SMA by Western blotting (FIG. 14A). mRNA expression of collagen 1, vimentin, and alpha-SMA by RT-PCR was examined (FIG. 14B). mRNA expression of genes associated with inflammation by RT-PCR was examined (FIG. 14C). The cells were treated with the indicated concentrations of YA6060 for 24 hours. *P<0.05, **P<0.01. The effect of YA6060 treatment on liver fibrosis in mice was also examined (FIG. 15). […]\nFibrosis in the liver tissues of the mice that received YA6060 treatment was quantified (FIG. 16). […] The collagen of liver tissues was stained by Sirius red (SR) and quantitated by Image J software. ***P<0.001. […]"}, "[2]": {"assay": "Toxicity evaluation in mice (oral gavage)", "assay_type": "in vivo", "experimental": "FIG. 8 illustrates the preliminary toxicity evaluated for YA6060 in major mouse organs. […] 11 weeks C57BL/6 mice were treated for […]. The isolated tissues were stained by Haematoxylin and Eosin (H&E). The images were taken under an amplification of 20×.\nBody weight change was measured over time in mice received YA6060. […]"}, "[3]": {"test_system": "Wnt/β-Catenin signaling pathway", "assay": "Wnt signaling luciferase (TOPflash) reporter gene assay", "assay_type": "cell-based", "settings": "luciferase reporter gene assay; mean of three independent experiments; read-out: IC50 (nM) to inhibit the Wnt signaling activity", "source_text": "A dual-luciferase gene reporter assay was used to test inhibitory activities of new compounds on Wnt signaling. […] Therefore, the effects of new compounds on AMPK was examined. […]"}, "[4]": {"assay": "Toxicity in normal HEK293 cells", "assay_type": "cell-based", "settings": "human", "experimental": "YA6060 has an excellent druglike profile. […] The ADMET and PK properties of YA6060 was determined."}, "β-catenin": {"biological_target": "β-catenin (Homo sapiens (Human), UniProt P35222)", "assay": "Western blotting of β-catenin in HEK293 cells", "assay_type": "cell-based", "settings": "100 nM, 24 h", "experimental": "(§1) FIG. 6A-FIG. 6E illustrate the development of Axin stabilizers with dual activities of Wnt inhibition and AMPK activation. […] HEK293 cells were used. B&C: 100 nM compounds, 24 h. FIG. 6D is a table showing the activity profile of YA6060. F=bioavailability; soubility is aqueous solubility.\n(§2) A dual-luciferase gene reporter assay was used to test inhibitory activities of new compounds on Wnt signaling. […] Axin is also reported to form a complex with AMPK and its upstream kinase LKB1 (FIG. 12A and FIG. 12B) to facilitate AMPK activation. Therefore, the effects of new compounds on AMPK was examined. […] YA6060 and its analogs had dual activities of potent Wnt signaling inhibition and AMPK activation, which were dependent on the levels of scaffolding protein Axin."}, "AMPK": {"test_system": "AMPK", "assay": "Western blotting of phosphorylated AMPK in HEK293 cells", "assay_type": "cell-based", "settings": "100 nM, 24 h", "experimental": "as §1, §2"}, "HT29 cells": {"test_system": "HT29 cells", "assay": "Viability of HT29 cells", "assay_type": "cell-based", "settings": "Homo sapiens, HT-29, read-out: IC50, cell viability"}}, "note": "Where “and” joins values, the source holds several entries; their conditions need not be identical. Equal entries are not always repeated. Entries after “also recorded” stand apart in the source; their conditions may differ.", "data": [{"smiles": "Cc1ccccc1-n1nnc(C(=O)Nc2ccc3cc(CN4CCNCC4)ccc3n2)c1C", "note": "[YA6060]", "values": [{"measurement": "liver fibrosis (Sirius Red)", "setting": "[1]; 0.5 or 5 mg/kg/day, 4 weeks", "value": "reduced dimethylnitrosamine (DMNA)-induced fibrosis; also recorded: strong protective effects"}, {"measurement": "inflammation infiltration (H&E hepatic histology)", "setting": "[1]; DMNA 4 weeks", "value": "ameliorated"}, {"measurement": "liver function (serum ALT, AST, albumin, total bilirubin)", "setting": "[1]; YA6060 co-treatment with DMNA", "value": "normal liver function"}, {"measurement": "MTD at 21 days", "setting": "[2]; C57BL/6, mouse, in vivo, oral, 500 mg/kg, mice, single dose", "value": "> 500", "unit": "mg/kg"}, {"measurement": "acute toxicity test (body weight change)", "setting": "[2]; mouse, in vivo, po", "value": "did not exhibit acute toxicity"}, {"measurement": "toxicity / tolerability in mice, histology of major organs", "setting": "[2]; oral gavage 500 mg/kg once, 21-day evaluation", "value": "no obvious toxicity; also recorded: no noticeable toxic effects; also recorded: well tolerated; also recorded: No histological changes"}, {"measurement": "safety margin over an efficacy dose (0.5 mg/kg) for liver fibrosis", "setting": "[2]; single dose of 500 mg/kg", "value": "> 1,000 fold"}, {"measurement": "IC50", "setting": "[3]", "value": "4.3 nM and 4 nM"}, {"measurement": "IC50", "setting": "[4]", "value": "> 100000", "unit": "nM"}, {"measurement": "protein level of β-catenin", "setting": "β-catenin", "value": "decreased"}, {"measurement": "levels of phosphorylated AMPK (p-AMPK)", "setting": "AMPK", "value": "significantly increased"}, {"measurement": "IC50", "setting": "HT29 cells", "value": 8600, "unit": "nM"}]}]}
